The source of these data is patent publication US12371428B2 (Exelixis, Inc., priority 2019, dated 2025).

Assay [1] addresses Mer (phospho-Mer, MERTK-transfected 293A cells) (Homo sapiens (Human), UniProt Q12866). As to the kind of experiment: Mer autophosphorylation ELISA in transient transfected 293A cells (Example H). The settings on record: cellular activity. The class given is cell-based. An outline of the steps:
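Inhibition of cellular Mer autophosphorylation is determined in 293A cells transiently expressing human MERTK after 1 h compound exposure (8 concentrations, serum-free, 0.3% DMSO). Phospho-Mer in clarified lysates is measured by ELISA, with DMSO and reference-inhibitor wells defining the 100% and 0% activity limits.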

Assay [2] has as its target AXL (phospho-AXL, Gas6-stimulated A-172 glioblastoma cells) (Homo sapiens (Human), UniProt P30530). As to the kind of experiment: AXL autophosphorylation ELISA in A-172 cells (Example E). The class given is cell-based. The conditions noted are these: cellular activity, read-out: Axl IC50. The protocol:
A-172 cells were incubated at 37° C., 5% CO2 for 24 h and then starved for 24 h in serum-free medium. Test compounds were serially diluted to produce an 8-point dose curve in fresh serum-free medium to a final concentration of 0.3% DMSO (vehicle) and added to the cells and incubated for 1 h. […] Lysates were collected and 100 μL/well added into the human phospho-AXL DuoSet IC ELISA (R&D Systems #DYC2228-2). […] Positive control wells (100% activity) contained Gas6-stimulated, DMSO-treated cell lysates. Negative control wells (0% activity) contained Gas6-stimulated, reference inhibitor-treated cell lysates. IC50 values were calculated by nonlinear regression analysis using a 4-parameter logistic curve fit in ActivityBase XE (IDBS).

Assay [3] concerns the target Met (phospho-Met, HGF-stimulated PC-3 prostate cancer cells) (Homo sapiens (Human), UniProt P08581). The assay is described as follows: Met autophosphorylation ELISA in PC-3 cells (Example F). The conditions noted are these: cellular activity, read-out: c-Met IC50. The class given is cell-based. The procedure, abridged: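 PC-3 cells, serum-starved 3 h, were treated with compounds (8-point dose curve, 0.3% DMSO final) for 1 h, then stimulated with 100 ng/mL recombinant human HGF for 10 min. Lysate phospho-Met (panTyr) was quantified by sandwich ELISA; IC50 from 4-parameter logistic fit.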

Assay [4] deals with Human MET (residues 956-1390) (Homo sapiens (Human), UniProt P08581). As to the kind of experiment: Human Met kinase assay, HTRF KinEase (Example D-2). The class given is biochemical. The conditions noted are these: read-out: c-Met IC50. An outline of the steps: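 IC50 values come from a 4-parameter logistic fit of the […] fluorescence ratio, set between DMSO (100%) and reference compound at 1 μM (0%). Reactions held MET 956-1390 at 0.1 ng/well, ATP at Km, biotinylated peptide, 5 mM MgCl2, 1 mM MnCl2, 1 mM DTT and 3% DMSO, and ran 40 min at room temperature before streptavidin-XL665/Eu-antibody detection.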

Assay [5] addresses Human MER (residues 528-999) (Homo sapiens (Human), UniProt Q12866). The assay is described as follows: Human Mer kinase assay, HTRF KinEase (Example C-2). The class given is biochemical. The procedure, abridged: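 IC50 values from 10 concentrations via 4-parameter logistic fit of […], with DMSO as 100% and 1 μM reference compound as 0% activity. Reaction: MER kinase domain 528-999, 1 ng/well, 40 μM ATP (Km), biotin peptide, 5 mM MgCl2, 1 mM DTT, 3% DMSO, room temperature 60 min; HTRF streptavidin-XL665/Eu-antibody detection.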

The target of assay [6] is Human KDR (residues 790-1356) (Homo sapiens (Human), UniProt P35968). As to the kind of experiment: Human KDR kinase assay, HTRF KinEase (Example B-2). The format is biochemical. An outline of the steps: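 Human KDR residues 790-1356 (0.1 ng/well) in buffer with 5 mM MgCl2, 1 mM MnCl2, 1 mM DTT, biotinylated peptide substrate, ATP at Km (4.0 μM), 3% DMSO, 10 compound concentrations; 40 min, room temperature. EDTA stop, streptavidin-XL665/Eu-TK antibody HTRF read 665/620 nm; 4-parameter IC50.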

Assay [7] has as its target KDR (phospho-KDR, VEGF165-stimulated HUVEC cells) (Homo sapiens (Human), UniProt P35968). As to the kind of experiment: KDR autophosphorylation ELISA in HUVEC cells (Example G). The class given is cell-based. The settings on record: cellular activity; KDR autophosphorylation ELISA in HUVEC cells. An outline of the steps:
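Cells seeded, grown 24 h at 37 °C, starved 24 h serum-free; cpd 8-pt curve, 0.3% DMSO, 1 h; VEGF165 100 ng/mL, 5 min; cold PBS wash, lysis with orthovanadate and protease/phosphatase inhibitors; pKDR ELISA; IC50 by 4-parameter logistic regression.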

[8] abbreviates: Mer autophosphorylation ELISA in transient transfected 293A cells.
The mark [9] stands for this setting: AXL autophosphorylation ELISA in A-172 cells.
Where [10] appears, read: Met autophosphorylation ELISA in PC-3 cells.
[11] abbreviates: protocol of Example D-2 (other compounds).
Setting [12] is: protocol of Example C-2 (other compounds).
Where [13] appears, read: protocol of Example B-2 (other compounds).

SMILES strings stand for the structures. pIC50: −log10 of the molar value. Read-outs that look alike come from different tables or passages of the source.

Sequence of Met (phospho-Met, HGF-stimulated PC-3 prostate cancer cells) (P08581 25-1390): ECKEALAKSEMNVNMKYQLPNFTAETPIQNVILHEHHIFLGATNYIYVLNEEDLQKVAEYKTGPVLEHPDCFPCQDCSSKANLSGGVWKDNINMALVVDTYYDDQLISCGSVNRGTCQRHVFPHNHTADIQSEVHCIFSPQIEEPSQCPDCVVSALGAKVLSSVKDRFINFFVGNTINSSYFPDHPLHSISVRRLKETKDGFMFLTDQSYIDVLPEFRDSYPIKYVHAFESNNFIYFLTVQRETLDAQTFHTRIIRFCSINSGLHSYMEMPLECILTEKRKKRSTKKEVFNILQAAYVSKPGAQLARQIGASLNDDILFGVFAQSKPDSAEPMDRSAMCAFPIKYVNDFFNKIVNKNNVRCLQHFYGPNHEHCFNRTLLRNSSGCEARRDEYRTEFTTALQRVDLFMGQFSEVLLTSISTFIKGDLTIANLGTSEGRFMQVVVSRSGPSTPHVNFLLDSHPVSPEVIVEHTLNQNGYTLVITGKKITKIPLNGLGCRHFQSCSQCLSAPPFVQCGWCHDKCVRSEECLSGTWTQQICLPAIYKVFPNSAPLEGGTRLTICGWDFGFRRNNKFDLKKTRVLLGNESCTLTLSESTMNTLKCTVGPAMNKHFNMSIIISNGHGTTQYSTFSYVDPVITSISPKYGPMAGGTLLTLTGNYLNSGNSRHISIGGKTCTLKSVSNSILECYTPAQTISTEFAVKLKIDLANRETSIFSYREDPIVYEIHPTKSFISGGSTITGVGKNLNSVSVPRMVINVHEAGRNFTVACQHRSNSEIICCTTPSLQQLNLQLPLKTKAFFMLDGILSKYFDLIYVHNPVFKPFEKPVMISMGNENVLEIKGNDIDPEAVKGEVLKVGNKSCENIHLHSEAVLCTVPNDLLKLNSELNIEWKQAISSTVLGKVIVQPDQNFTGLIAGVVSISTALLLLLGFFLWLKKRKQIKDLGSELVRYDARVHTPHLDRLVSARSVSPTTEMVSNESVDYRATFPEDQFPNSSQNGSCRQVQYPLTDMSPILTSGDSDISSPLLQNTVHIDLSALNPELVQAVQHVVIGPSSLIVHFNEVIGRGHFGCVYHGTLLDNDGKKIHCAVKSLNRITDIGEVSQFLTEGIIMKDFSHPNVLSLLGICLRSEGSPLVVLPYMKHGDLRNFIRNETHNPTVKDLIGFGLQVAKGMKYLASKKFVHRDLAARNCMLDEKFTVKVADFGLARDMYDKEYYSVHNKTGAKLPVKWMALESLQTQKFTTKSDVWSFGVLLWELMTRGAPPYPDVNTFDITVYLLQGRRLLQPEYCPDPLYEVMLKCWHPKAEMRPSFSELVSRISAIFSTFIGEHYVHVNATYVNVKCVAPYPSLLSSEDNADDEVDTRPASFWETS
Sequence of AXL (phospho-AXL, Gas6-stimulated A-172 glioblastoma cells) (P30530 26-894): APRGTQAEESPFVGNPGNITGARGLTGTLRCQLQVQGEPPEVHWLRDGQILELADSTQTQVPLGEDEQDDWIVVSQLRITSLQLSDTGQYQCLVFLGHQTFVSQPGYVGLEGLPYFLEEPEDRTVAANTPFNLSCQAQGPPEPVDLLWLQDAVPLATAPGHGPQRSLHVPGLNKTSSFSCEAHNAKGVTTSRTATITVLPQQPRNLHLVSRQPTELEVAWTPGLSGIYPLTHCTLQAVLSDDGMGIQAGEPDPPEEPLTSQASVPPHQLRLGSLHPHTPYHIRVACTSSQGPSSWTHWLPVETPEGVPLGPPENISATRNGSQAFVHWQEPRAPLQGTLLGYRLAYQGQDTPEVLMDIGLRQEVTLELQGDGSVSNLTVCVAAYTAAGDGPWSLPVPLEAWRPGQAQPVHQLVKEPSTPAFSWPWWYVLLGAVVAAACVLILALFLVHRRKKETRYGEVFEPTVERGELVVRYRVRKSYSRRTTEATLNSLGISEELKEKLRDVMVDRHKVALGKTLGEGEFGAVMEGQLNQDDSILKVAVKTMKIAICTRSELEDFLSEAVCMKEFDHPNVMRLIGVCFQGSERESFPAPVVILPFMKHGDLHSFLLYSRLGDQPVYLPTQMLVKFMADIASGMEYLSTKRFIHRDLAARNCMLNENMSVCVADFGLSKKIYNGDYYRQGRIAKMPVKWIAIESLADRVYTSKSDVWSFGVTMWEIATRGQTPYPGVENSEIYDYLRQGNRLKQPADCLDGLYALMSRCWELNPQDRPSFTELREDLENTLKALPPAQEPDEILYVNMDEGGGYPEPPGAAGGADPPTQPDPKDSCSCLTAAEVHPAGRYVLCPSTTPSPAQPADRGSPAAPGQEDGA
Sequence of Human MER (residues 528-999) (Q12866 528-999): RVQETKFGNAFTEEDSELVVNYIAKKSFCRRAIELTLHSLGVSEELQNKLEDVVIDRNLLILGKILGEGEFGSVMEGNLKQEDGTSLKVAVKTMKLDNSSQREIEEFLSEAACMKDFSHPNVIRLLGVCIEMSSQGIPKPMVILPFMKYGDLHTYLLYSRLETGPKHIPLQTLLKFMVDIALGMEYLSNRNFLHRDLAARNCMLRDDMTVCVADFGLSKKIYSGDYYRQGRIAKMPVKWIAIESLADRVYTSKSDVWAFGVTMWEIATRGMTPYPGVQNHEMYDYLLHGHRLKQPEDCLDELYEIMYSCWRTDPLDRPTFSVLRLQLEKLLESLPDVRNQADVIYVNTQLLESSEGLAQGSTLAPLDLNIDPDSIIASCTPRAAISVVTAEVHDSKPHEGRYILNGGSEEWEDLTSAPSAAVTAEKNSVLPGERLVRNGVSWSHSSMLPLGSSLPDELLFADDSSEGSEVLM
Sequence of KDR (phospho-KDR, VEGF165-stimulated HUVEC cells) (P35968 20-1356): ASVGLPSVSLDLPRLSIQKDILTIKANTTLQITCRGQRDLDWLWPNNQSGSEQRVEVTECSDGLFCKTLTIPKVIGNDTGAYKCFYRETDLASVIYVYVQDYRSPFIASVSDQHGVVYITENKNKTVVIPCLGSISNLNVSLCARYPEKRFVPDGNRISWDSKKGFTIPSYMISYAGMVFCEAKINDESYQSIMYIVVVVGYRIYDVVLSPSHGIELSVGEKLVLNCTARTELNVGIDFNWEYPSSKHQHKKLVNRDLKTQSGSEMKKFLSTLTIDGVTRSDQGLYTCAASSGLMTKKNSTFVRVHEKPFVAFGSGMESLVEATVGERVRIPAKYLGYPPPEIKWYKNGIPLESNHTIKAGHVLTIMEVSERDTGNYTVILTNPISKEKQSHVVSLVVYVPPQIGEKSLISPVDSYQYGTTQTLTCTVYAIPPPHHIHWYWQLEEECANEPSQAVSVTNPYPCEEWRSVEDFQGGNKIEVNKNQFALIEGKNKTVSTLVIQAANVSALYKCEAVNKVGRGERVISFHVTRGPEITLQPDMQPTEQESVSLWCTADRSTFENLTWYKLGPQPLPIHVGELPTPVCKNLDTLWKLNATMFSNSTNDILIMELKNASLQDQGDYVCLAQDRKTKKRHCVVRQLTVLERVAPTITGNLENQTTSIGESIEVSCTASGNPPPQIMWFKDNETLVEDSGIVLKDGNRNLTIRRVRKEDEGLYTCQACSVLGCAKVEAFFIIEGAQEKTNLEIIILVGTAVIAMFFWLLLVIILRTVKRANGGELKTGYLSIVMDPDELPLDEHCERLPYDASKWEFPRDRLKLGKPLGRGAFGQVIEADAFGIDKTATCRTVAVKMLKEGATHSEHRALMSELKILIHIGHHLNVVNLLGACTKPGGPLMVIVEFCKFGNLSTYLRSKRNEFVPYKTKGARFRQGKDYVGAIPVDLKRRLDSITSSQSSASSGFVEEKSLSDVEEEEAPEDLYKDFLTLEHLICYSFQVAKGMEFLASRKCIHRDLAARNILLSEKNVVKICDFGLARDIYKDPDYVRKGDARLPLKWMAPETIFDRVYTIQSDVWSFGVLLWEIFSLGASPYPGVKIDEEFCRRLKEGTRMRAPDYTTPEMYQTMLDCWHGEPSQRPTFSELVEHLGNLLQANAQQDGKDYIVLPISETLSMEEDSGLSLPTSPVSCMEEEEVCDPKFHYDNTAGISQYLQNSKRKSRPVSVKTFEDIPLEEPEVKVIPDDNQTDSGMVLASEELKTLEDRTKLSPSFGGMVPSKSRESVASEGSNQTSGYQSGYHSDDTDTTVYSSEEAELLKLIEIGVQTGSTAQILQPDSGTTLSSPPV
Sequence of Human MET (residues 956-1390) (P08581 956-1390): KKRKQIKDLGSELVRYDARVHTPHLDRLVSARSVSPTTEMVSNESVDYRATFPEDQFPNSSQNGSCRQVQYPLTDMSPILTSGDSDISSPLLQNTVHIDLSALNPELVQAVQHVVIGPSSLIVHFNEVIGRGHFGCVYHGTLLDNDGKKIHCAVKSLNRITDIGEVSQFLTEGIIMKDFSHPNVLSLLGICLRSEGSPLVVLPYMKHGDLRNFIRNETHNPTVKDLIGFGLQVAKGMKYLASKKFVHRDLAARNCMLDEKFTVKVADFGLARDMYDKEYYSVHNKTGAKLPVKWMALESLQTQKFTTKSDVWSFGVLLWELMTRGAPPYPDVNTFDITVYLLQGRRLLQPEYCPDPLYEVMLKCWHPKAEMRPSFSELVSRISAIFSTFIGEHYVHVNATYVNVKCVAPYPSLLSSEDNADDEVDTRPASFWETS
Sequence of Human KDR (residues 790-1356) (P35968 790-1356): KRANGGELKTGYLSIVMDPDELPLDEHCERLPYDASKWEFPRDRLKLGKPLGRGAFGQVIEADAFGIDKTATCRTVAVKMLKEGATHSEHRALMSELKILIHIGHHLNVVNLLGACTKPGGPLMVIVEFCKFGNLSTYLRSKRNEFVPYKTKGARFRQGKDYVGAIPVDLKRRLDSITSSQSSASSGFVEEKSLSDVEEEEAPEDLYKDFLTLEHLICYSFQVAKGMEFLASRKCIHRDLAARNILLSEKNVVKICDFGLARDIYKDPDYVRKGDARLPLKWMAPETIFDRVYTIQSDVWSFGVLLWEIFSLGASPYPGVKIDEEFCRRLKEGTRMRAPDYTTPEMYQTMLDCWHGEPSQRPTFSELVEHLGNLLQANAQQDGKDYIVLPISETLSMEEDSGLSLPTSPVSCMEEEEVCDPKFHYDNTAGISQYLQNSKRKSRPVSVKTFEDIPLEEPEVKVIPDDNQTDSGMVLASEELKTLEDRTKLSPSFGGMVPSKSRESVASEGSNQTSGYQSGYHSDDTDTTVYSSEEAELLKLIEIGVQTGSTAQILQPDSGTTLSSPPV

For `COCc1nc(C)cc(O)c1C(=O)Nc1ccc(Oc2ccnc3cc(OC)c(OC)nc23)c(F)c1` [Compound 492, N-[4-[(6,7-dimethoxy-1,5-naphthyridin-4-yl)oxy]-3-fluorophenyl]-4-hydroxy-2-(methoxymethyl)-6-methylpyridine-3-carboxamide], the negative logarithm of the IC50 (pIC50) in assay [1] (setting [8]) was > 7.00; in assay [2] (setting [9]), 6.52 to 7.00; in assay [3] (setting [10]), > 7.00.
`COc1cc2nccc(Oc3ccc(NC(=O)c4cc(F)c(C)n(-c5ccc(F)cc5)c4=O)cc3)c2nc1OC` [Compound 338, N-[4-[(6,7-dimethoxy-1,5-naphthyridin-4-yl)oxy]phenyl]-5-fluoro-1-(4-fluorophenyl)-6-methyl-2-oxopyridine-3-carboxamide]: the pIC50 in assay [1] (setting [8]), in assay [2] (setting [9]) and in assay [3] (setting [10]) was > 7.00 in each case.
With `COc1cc(F)ccc1-c1cn(CCF)c(C)c(C(=O)Nc2ccc(Oc3ccnc4cc(OC)c(OC)nc34)c(F)c2)c1=O` [Compound 805, N-[4-[(6,7-dimethoxy-1,5-naphthyridin-4-yl)oxy]-3-fluorophenyl]-1-(2-fluoroethyl)-5-(4-fluoro-2-methoxyphenyl)-2-methyl-4-oxopyridine-3-carboxamide], the negative-log IC50 (pIC50) in assay [1] (transfected 293A cells), in assay [2] (A-172 cells) and in assay [3] (PC-3 cells) was > 7.00 each time.
`COc1cc2nccc(Oc3ccc(NC(=O)c4c(C)nc(C)c(-c5ccc(F)cc5F)c4O)cc3F)c2nc1OC` [Compound 209, 5-(2,4-Difluorophenyl)-N-[4-[(6,7-dimethoxy-1,5-naphthyridin-4-yl)oxy]-3-fluorophenyl]-4-hydroxy-2,6-dimethylpyridine-3-carboxamide]: the negative-log IC50 (pIC50) in assay [1] (setting [8]), in assay [2] (setting [9]) and in assay [3] (setting [10]) was > 7.00 throughout.
On to `COc1cc2nccc(Oc3ccc(NC(=O)c4cn(CC(F)F)c(C)c(-c5ccc(F)cc5)c4=O)cc3F)c2nc1OC` [Compound 623, 1-(2,2-Difluoroethyl)-N-[4-[(6,7-dimethoxy-1,5-naphthyridin-4-yl)oxy]-3-fluorophenyl]-5-(4-fluorophenyl)-6-methyl-4-oxopyridine-3-carboxamide], for which the negative logarithm of the IC50 (pIC50) in assay [1] (setting [8]), in assay [2] (setting [9]) and in assay [3] (setting [10]) was > 7.00 in each case.
In the case of `COc1cc2nccc(Oc3ccc(NC(=O)c4cn(CCF)c(C)c(-c5ccc(F)cc5C)c4=O)cc3)c2nc1OC` [Compound 800, N-[4-[(6,7-dimethoxy-1,5-naphthyridin-4-yl)oxy]phenyl]-1-(2-fluoroethyl)-5-(4-fluoro-2-methylphenyl)-6-methyl-4-oxopyridine-3-carboxamide], the pIC50 in assay [1] (setting [8]), in assay [2] (setting [9]) and in assay [3] (setting [10]) was > 7.00 each time.
On to `COc1cc2nccc(Oc3ccc(NC(=O)c4cc(Br)c(C)n(-c5ccc(F)cc5)c4=O)cc3F)c2nc1OC` [Compound 366, 5-bromo-N-[4-[(6,7-dimethoxy-1,5-naphthyridin-4-yl)oxy]-3-fluorophenyl]-1-(4-fluorophenyl)-6-methyl-2-oxopyridine-3-carboxamide], for which the negative-log IC50 (pIC50) in assay [4] (setting [11]) was 6.52 to 7.00; in assay [1] (setting [8]) it was > 7.00; in assay [5] (setting [12]), > 7.00; in assay [6] (setting [13]), 6.52 to 7.00; in assay [3] (setting [10]), > 7.00.
Regarding `COc1cc2nccc(Oc3ccc(NC(=O)c4cnc(C(F)(F)F)c(-c5ccc(F)cc5)c4O)cc3F)c2nc1OC` [Compound 79, N-[4-[(6,7-Dimethoxy-1,5-naphthyridin-4-yl)oxy]-3-fluorophenyl]-5-(4-fluorophenyl)-4-hydroxy-6-(trifluoromethyl)pyridine-3-carboxamide], the negative logarithm of the IC50 (pIC50) in assay [4] (setting [11]) was 6.52 to 7.00; in assay [1] (setting [8]), > 7.00; in assay [5] (setting [12]), > 7.00; in assay [6] (setting [13]), < 6.52; in assay [3] (setting [10]) it was 6.52 to 7.00.
In the case of `COc1cnc2c(Oc3ccc(NC(=O)c4cn(CCO)c(C)c(-c5ccc(F)cc5)c4=O)cc3F)ccnc2c1` [Compound 621, N-[3-Fluoro-4-[(7-methoxy-1,5-naphthyridin-4-yl)oxy]phenyl]-5-(4-fluorophenyl)-1-(2-hydroxyethyl)-6-methyl-4-oxopyridine-3-carboxamide], the pIC50 in assay [4] (protocol of Example D-2) was > 7.00; in assay [1] (setting [8]), 6.52 to 7.00; in assay [5] (protocol of Example C-2), > 7.00; in assay [6] (protocol of Example B-2) it was < 6.52; in assay [7], 6.52 to 7.00.
As for `Cc1ncc(C(=O)Nc2ccc(Oc3ccnc4cc(F)cnc34)c(F)c2)c(O)c1-c1ccc(F)cc1` [Compound 160, N-[3-Fluoro-4-[(7-fluoro-1,5-naphthyridin-4-yl)oxy]phenyl]-5-(4-fluorophenyl)-4-hydroxy-6-methylpyridine-3-carboxamide], the negative logarithm of the IC50 (pIC50) in assay [4] (setting [11]), in assay [5] (setting [12]), in assay [6] (setting [13]), in assay [7] and in assay [3] (setting [10]) was > 7.00 in each case.
`COc1cc2nccc(Oc3ccc(NC(=O)c4cn(-c5cnn(C)c5)c(C)c(-c5ccc(F)cc5)c4=O)cc3)c2nc1OC` [Compound 141, N-[4-[(6,7-Dimethoxy-1,5-naphthyridin-4-yl)oxy]phenyl]-5-(4-fluorophenyl)-6-methyl-1-(1-methylpyrazol-4-yl)-4-oxopyridine-3-carboxamide]: the pIC50 in assay [4] (setting [11]) is > 7.00; in assay [1] (setting [8]), > 7.00; in assay [5] (setting [12]), > 7.00; in assay [6] (setting [13]) it was < 6.52; in assay [3] (setting [10]), > 7.00.
Regarding `COc1cc2nccc(Oc3ccc(NC(=O)c4c(C)n(C)cc(-c5ccc(F)cc5)c4=O)cc3)c2nc1OC` [Compound 238, N-[4-[(6,7-Dimethoxy-1,5-naphthyridin-4-yl)oxy]phenyl]-5-(4-fluorophenyl)-1,2-dimethyl-4-oxopyridine-3-carboxamide], the pIC50 was > 7.00 in assay [4] (setting [11]); > 7.00 in assay [1] (setting [8]); > 7.00 in assay [5] (setting [12]); < 6.52 in assay [6] (setting [13]); > 7.00 in assay [3] (setting [10]).
In the case of `Cc1ccc2nccc(Oc3ccc(NC(=O)c4c(C)nc(C)c(-c5ccc(F)cc5C)c4O)cc3)c2n1` [Compound 507, 5-(4-fluoro-2-methylphenyl)-4-hydroxy-2,6-dimethyl-N-[4-[(6-methyl-1,5-naphthyridin-4-yl)oxy]phenyl]pyridine-3-carboxamide], the negative-log IC50 (pIC50) was > 7.00 in assay [4] (protocol of Example D-2); 6.52 to 7.00 in assay [1] (setting [8]); 6.52 to 7.00 in assay [5] (protocol of Example C-2); < 6.52 in assay [6] (protocol of Example B-2); > 7.00 in assay [7].
In the case of `Cc1cc(F)ccc1-c1c(C)ncc(C(=O)Nc2ccc(Oc3ccnc4cc(C(C)C)cnc34)cc2)c1O` [Compound 597, 5-(4-Fluoro-2-methylphenyl)-4-hydroxy-6-methyl-N-[4-[(7-propan-2-yl-1,5-naphthyridin-4-yl)oxy]phenyl]pyridine-3-carboxamide], the pIC50 in assay [4] (protocol of Example D-2) was 6.52 to 7.00; in assay [5] (protocol of Example C-2), < 6.52; in assay [6] (protocol of Example B-2), < 6.52; in assay [7] it was 6.52 to 7.00.
